Drawing on ChEMBL document CHEMBL3272205, “Pyrazolodiazepines. 2. 4-Aryl-1,3-dialkyl-6,8-dihydropyrazolo[3,4-e] [1,4]diazepin-7(1H)-ones as antianxiety and anticonvulsant agents” (1977), this text covers minimal effective dose and Ratio for 58 compounds.

Type in all cases: functional
The species named for experiment [1] is Rattus norvegicus. As to the kind of experiment: Anticonvulsant activity in rat assessed as protection against pentylenetetrazole-induced clonic seizures. To be noted: read-out: MED.
The species entered for experiment [2] is Rattus norvegicus. Description: Antianxiety activity in Holtzman rat assessed as dose required to elicit increase in milk consumption. The conditions noted are these: read-out: MED.
The species entered for experiment [3] is Rattus norvegicus. Description: Ratio of diazepam MED to compound MED for antianxiety activity in Holtzman rat.

For the compound `Cl.Cn1ncc2c1NC(=O)CN=C2c1ccccc1`, the minimal effective dose in the experiment listed under Rattus norvegicus [1] was 250 mg/kg; in the experiment filed under Rattus norvegicus [2], above 80 mg/kg.

As to `Cc1nn(C)c2c1C(c1ccccc1)=NCC(=O)N2`, the minimal effective dose is 16 mg/kg in the experiment filed under Rattus norvegicus [1] and 10 mg/kg in the experiment listed under Rattus norvegicus [2].

In the case of `Cc1nn(C)c2c1C(c1ccccc1)=NCC(=O)N2C`, the minimal effective dose in the experiment filed under Rattus norvegicus [1] was found to be 4 mg/kg; in the experiment filed under Rattus norvegicus [2], 2.5 mg/kg.

For the compound `Cc1nn(C)c2c1C(c1ccccc1)=NCC(=O)N2C.Cl`, the minimal effective dose in the experiment filed under Rattus norvegicus [1] is 4 mg/kg; in the experiment listed under Rattus norvegicus [2] it was 2.5 mg/kg.

Consider `Cc1nn(C)c2c1C(c1cccs1)=NCC(=O)N2`, for which, in the experiment filed under Rattus norvegicus [2], the minimal effective dose was determined as 40 mg/kg.

Take `CCc1nn(C)c2c1C(c1ccccc1)=NCC(=O)N2`: the minimal effective dose is 8 mg/kg in the experiment listed under Rattus norvegicus [1] and 2.5 mg/kg in the experiment listed under Rattus norvegicus [2].

Consider `CCc1nn(C)c2c1C(c1ccccc1)=NCC(=O)N2C`, for which the minimal effective dose in the experiment listed under Rattus norvegicus [1] worked out at 4 mg/kg; in the experiment filed under Rattus norvegicus [2] it was 1.25 mg/kg.

For `Cc1nn(C)c2c1C(c1ccccc1Cl)=NCC(=O)N2`, the minimal effective dose stood at 16 mg/kg in the experiment filed under Rattus norvegicus [1] and 2.5 mg/kg in the experiment filed under Rattus norvegicus [2].

With `Cc1nn(C)c2c1C(c1ccccc1Cl)=NCC(=O)N2C.Cl`, the minimal effective dose in the experiment filed under Rattus norvegicus [1] stood at 4 mg/kg; in the experiment filed under Rattus norvegicus [2] it was 2.5 mg/kg.

As to `Cc1nn(C)c2c1C(c1cccc(Cl)c1)=NCC(=O)N2`, the minimal effective dose in the experiment listed under Rattus norvegicus [1] is above 500 mg/kg; in the experiment filed under Rattus norvegicus [2], above 40 mg/kg.

On to `Cc1nn(C)c2c1C(c1ccccc1F)=NCC(=O)N2`, for which the minimal effective dose in the experiment listed under Rattus norvegicus [1] is 8 mg/kg; in the experiment filed under Rattus norvegicus [2] it was 2.5 mg/kg.

Take `CCN1C(=O)CN=C(c2ccccc2F)c2c(C)nn(C)c21`: the minimal effective dose in the experiment filed under Rattus norvegicus [1] stood at 32 mg/kg; in the experiment filed under Rattus norvegicus [2], 5 mg/kg.

For `CCc1nn(C)c2c1C(c1ccccc1F)=NCC(=O)N2`, the minimal effective dose in the experiment filed under Rattus norvegicus [1] was found to be 2 mg/kg; in the experiment filed under Rattus norvegicus [2], 1.25 mg/kg.

For the compound `CCc1nn(C)c2c1C(c1ccccc1F)=NCC(=O)N2.Cl`, the values for the minimal effective dose in the experiment listed under Rattus norvegicus [1] and in the experiment listed under Rattus norvegicus [2] were 2 mg/kg and 1.25 mg/kg, respectively.

For `CCc1nn(C)c2c1C(c1ccccc1F)=NCC(=O)N2C`, the minimal effective dose in the experiment listed under Rattus norvegicus [1] came to 4 mg/kg; in the experiment filed under Rattus norvegicus [2] it was 1.25 mg/kg.

For the compound `CCc1nn(C)c2c1C(c1cccc(F)c1)=NCC(=O)N2`, the minimal effective dose in the experiment filed under Rattus norvegicus [1] stood at 32 mg/kg; in the experiment filed under Rattus norvegicus [2], 20 mg/kg.

As for `CCc1nn(C)c2c1C(c1cccc(F)c1)=NCC(=O)N2C`, the minimal effective dose came to 32 mg/kg in the experiment listed under Rattus norvegicus [1] and 10 mg/kg in the experiment filed under Rattus norvegicus [2].

As for `CCc1nn(C)c2c1C(c1ccc(F)cc1)=NCC(=O)N2`, the results for the minimal effective dose in the experiment filed under Rattus norvegicus [1] and in the experiment filed under Rattus norvegicus [2] were above 500 mg/kg and above 40 mg/kg, respectively.

Regarding `CCc1nn(C)c2c1C(c1ccc(F)cc1)=NCC(=O)N2C`, the values for the minimal effective dose in the experiment filed under Rattus norvegicus [1] and in the experiment filed under Rattus norvegicus [2] were above 500 mg/kg and above 40 mg/kg, respectively.

`Cc1nn(C)c2c1C(c1ccccc1Br)=NCC(=O)N2C`: the results for the minimal effective dose in the experiment filed under Rattus norvegicus [1] and in the experiment filed under Rattus norvegicus [2] were 4 mg/kg and 5 mg/kg, respectively.

With `Cc1nn(C)c2c1C(c1c(F)cccc1F)=NCC(=O)N2C`, the minimal effective dose in the experiment filed under Rattus norvegicus [1] stood at 2 mg/kg; in the experiment listed under Rattus norvegicus [2], 20 mg/kg.

Regarding `Cc1nn(C)c2c1C(c1ccccc1[N+](=O)[O-])=NCC(=O)N2C`, in the experiment listed under Rattus norvegicus [1], the minimal effective dose turned out to be 8 mg/kg.

Turning to `Cc1nn(C)c2c1C(c1ccccc1N=[N+]=[N-])=NCC(=O)N2C`, the minimal effective dose was 63 mg/kg in the experiment listed under Rattus norvegicus [1] and above 40 mg/kg in the experiment filed under Rattus norvegicus [2].

As for `Cn1nc(Cl)c2c1NC(=O)CN=C2c1ccccc1`, the minimal effective dose was 63 mg/kg in the experiment listed under Rattus norvegicus [1] and 40 mg/kg in the experiment listed under Rattus norvegicus [2].

Consider `COc1nn(C)c2c1C(c1ccccc1F)=NCC(=O)N2C`, for which the values for the minimal effective dose in the experiment filed under Rattus norvegicus [1] and in the experiment listed under Rattus norvegicus [2] were 8 mg/kg and 10 mg/kg, respectively.

Consider `CCc1nn(C)c2c1C(c1ccccc1Cl)=NCC(=O)N2`, for which the minimal effective dose was found to be 32 mg/kg in the experiment listed under Rattus norvegicus [1] and 2.5 mg/kg in the experiment listed under Rattus norvegicus [2].

In the case of `CCc1nn(C)c2c1C(c1ccccc1Cl)=NCC(=O)N2C`, the values for the minimal effective dose in the experiment filed under Rattus norvegicus [1] and in the experiment listed under Rattus norvegicus [2] were 16 mg/kg and 0.63 mg/kg, respectively.

As to `CC(C)c1nn(C)c2c1C(c1ccccc1Cl)=NCC(=O)N2`, the results for the minimal effective dose in the experiment filed under Rattus norvegicus [1] and in the experiment listed under Rattus norvegicus [2] were 125 mg/kg and above 40 mg/kg, respectively.

As to `CC(C)c1nn(C)c2c1C(c1ccccc1Cl)=NCC(=O)N2C`, the minimal effective dose is 63 mg/kg in the experiment listed under Rattus norvegicus [1] and above 40 mg/kg in the experiment listed under Rattus norvegicus [2].

Consider `CCCc1nn(C)c2c1C(c1ccccc1Cl)=NCC(=O)N2`, for which the minimal effective dose is 250 mg/kg in the experiment listed under Rattus norvegicus [1] and above 40 mg/kg in the experiment listed under Rattus norvegicus [2].

`CCCc1nn(C)c2c1C(c1ccccc1Cl)=NCC(=O)N2C`: the minimal effective dose in the experiment filed under Rattus norvegicus [1] was 63 mg/kg; in the experiment listed under Rattus norvegicus [2] it was above 40 mg/kg.

Take `CCCCc1nn(C)c2c1C(c1ccccc1Cl)=NCC(=O)N2`: the values for the minimal effective dose in the experiment listed under Rattus norvegicus [1] and in the experiment filed under Rattus norvegicus [2] were above 500 mg/kg and above 40 mg/kg, respectively.

As to `CCCCc1nn(C)c2c1C(c1ccccc1Cl)=NCC(=O)N2C`, the figures for the minimal effective dose in the experiment filed under Rattus norvegicus [1] and in the experiment listed under Rattus norvegicus [2] were 125 mg/kg and above 40 mg/kg, respectively.

Regarding `CCn1nc(C)c2c1NC(=O)CN=C2c1ccccc1F`, the minimal effective dose in the experiment listed under Rattus norvegicus [1] was 8 mg/kg; in the experiment listed under Rattus norvegicus [2] it was 2.5 mg/kg.

As to `CCn1nc(C)c2c1N(C)C(=O)CN=C2c1ccccc1F`, the minimal effective dose was 4 mg/kg in the experiment filed under Rattus norvegicus [1] and 1.25 mg/kg in the experiment filed under Rattus norvegicus [2].

In the case of `CCn1nc(C)c2c1NC(=O)CN=C2c1ccccc1Cl`, the minimal effective dose in the experiment listed under Rattus norvegicus [1] is 8 mg/kg; in the experiment filed under Rattus norvegicus [2] it was 5 mg/kg.

For the compound `CCn1nc(C)c2c1N(C)C(=O)CN=C2c1ccccc1Cl`, the minimal effective dose in the experiment listed under Rattus norvegicus [1] is 4 mg/kg; in the experiment filed under Rattus norvegicus [2], 0.63 mg/kg.

Regarding `C=CCN1C(=O)CN=C(c2ccccc2Cl)c2c(C)nn(CC)c21`, the figures for the minimal effective dose in the experiment listed under Rattus norvegicus [1] and in the experiment listed under Rattus norvegicus [2] were 63 mg/kg and above 40 mg/kg, respectively.

For `CCCn1nc(C)c2c1NC(=O)CN=C2c1ccccc1Cl`, the minimal effective dose in the experiment filed under Rattus norvegicus [1] was 63 mg/kg; in the experiment listed under Rattus norvegicus [2] it was 40 mg/kg.

For the compound `CCCn1nc(C)c2c1N(C)C(=O)CN=C2c1ccccc1Cl`, the figures for the minimal effective dose in the experiment filed under Rattus norvegicus [1] and in the experiment filed under Rattus norvegicus [2] were 16 mg/kg and 2.5 mg/kg, respectively.

As for `Cc1nn(C(C)C)c2c1C(c1ccccc1Cl)=NCC(=O)N2`, the minimal effective dose came out at 16 mg/kg in the experiment filed under Rattus norvegicus [1] and 20 mg/kg in the experiment listed under Rattus norvegicus [2].

Take `CCCCn1nc(C)c2c1NC(=O)CN=C2c1ccccc1Cl`: the minimal effective dose was 32 mg/kg in the experiment filed under Rattus norvegicus [1] and 40 mg/kg in the experiment filed under Rattus norvegicus [2].

With `CCCCn1nc(C)c2c1N(C)C(=O)CN=C2c1ccccc1Cl`, the minimal effective dose in the experiment listed under Rattus norvegicus [1] was determined as 16 mg/kg; in the experiment filed under Rattus norvegicus [2], 40 mg/kg.

Take `CCCCn1nc(C)c2c1NC(=O)CN=C2c1cccc(Cl)c1`: the minimal effective dose in the experiment listed under Rattus norvegicus [1] is above 500 mg/kg; in the experiment listed under Rattus norvegicus [2] it was above 40 mg/kg.

As for `Cc1nn(C2CCCCC2)c2c1C(c1ccccc1Cl)=NCC(=O)N2`, the minimal effective dose was above 500 mg/kg in the experiment listed under Rattus norvegicus [1] and above 40 mg/kg in the experiment filed under Rattus norvegicus [2].

Take `Cc1nn(C2CCCCC2)c2c1C(c1ccccc1Cl)=NCC(=O)N2C`: the minimal effective dose is 63 mg/kg in the experiment listed under Rattus norvegicus [1] and above 40 mg/kg in the experiment filed under Rattus norvegicus [2].

Take `Cc1nn(-c2ccccc2)c2c1C(c1ccccc1)=NCC(=O)N2`: the minimal effective dose is above 500 mg/kg in the experiment filed under Rattus norvegicus [1] and above 40 mg/kg in the experiment filed under Rattus norvegicus [2].

With `Cc1nn(-c2ccccc2)c2c1C(c1ccccc1Cl)=NCC(=O)N2`, the minimal effective dose in the experiment filed under Rattus norvegicus [1] came out at 500 mg/kg; in the experiment filed under Rattus norvegicus [2], 20 mg/kg.

For `Cc1nn(C)c2c1C(c1ccccc1)=[N+]([O-])CC(=O)N2C`, the minimal effective dose in the experiment listed under Rattus norvegicus [1] is 63 mg/kg; in the experiment listed under Rattus norvegicus [2] it was above 40 mg/kg.

Consider `Cc1nn(C)c2c1C(c1ccccc1)=NC(O)C(=O)N2C` (stereo not given), for which the minimal effective dose is 16 mg/kg in the experiment listed under Rattus norvegicus [1] and 5 mg/kg in the experiment listed under Rattus norvegicus [2].

As for `Cc1nn(C)c2c1C(c1ccccc1F)=[N+]([O-])CC(=O)N2C`, the minimal effective dose turned out to be 8 mg/kg in the experiment filed under Rattus norvegicus [1] and 10 mg/kg in the experiment filed under Rattus norvegicus [2].

Take `CC(=O)OC1N=C(c2ccccc2F)c2c(C)nn(C)c2N(C)C1=O` (stereo not given): the minimal effective dose in the experiment listed under Rattus norvegicus [1] came out at 8 mg/kg; in the experiment listed under Rattus norvegicus [2], 20 mg/kg.

Regarding `Cc1nn(C)c2c1C(c1ccccc1F)=NC(O)C(=O)N2C` (stereo not given), the minimal effective dose in the experiment filed under Rattus norvegicus [1] stood at 4 mg/kg; in the experiment listed under Rattus norvegicus [2], 2.5 mg/kg.

Take `CCc1nn(C)c2c1C(c1ccccc1)NCC(=O)N2C.Cl` (stereo not given): the results for the minimal effective dose in the experiment listed under Rattus norvegicus [1] and in the experiment filed under Rattus norvegicus [2] were 63 mg/kg and above 40 mg/kg, respectively.

For the compound `Cc1nn(C)c2c1C(c1ccccc1F)NCC(=O)N2C.Cl` (stereo not given), the results for the minimal effective dose in the experiment listed under Rattus norvegicus [1] and in the experiment filed under Rattus norvegicus [2] were 4 mg/kg and 1.2 mg/kg, respectively.

Consider `CN1C(=O)CN=C(c2ccccc2)c2cc(Cl)ccc21` [DIAZEPAM], for which the values for the minimal effective dose in the experiment listed under Rattus norvegicus [1] and in the experiment listed under Rattus norvegicus [2] were 4 mg/kg and 1.25 mg/kg, respectively.

As for `Cc1nn(C)c2c1C(c1ccccc1F)=NCC(=O)N2C.Cl` [ZOLAZEPAM HYDROCHLORIDE], the minimal effective dose was found to be 2 mg/kg in the experiment filed under Rattus norvegicus [1] and 0.32 mg/kg in the experiment listed under Rattus norvegicus [2].

Regarding `Cc1nn(C)c2c1C(c1ccccc1F)=NCC(=O)N2C` [ZOLAZEPAM], the Ratio in the experiment listed under Rattus norvegicus [3] is 5. Also, the minimal effective dose in the experiment filed under Rattus norvegicus [1] worked out at 2 mg/kg; in the experiment filed under Rattus norvegicus [2], 0.32 mg/kg.
